Assay results from patent US20240300980A1, “HETEROCYCLIC COMPOUNDS AS KRAS INHIBITOR, AND PREPARATION THEREFOR AND USE THEREOF IN TREATMENT” (SHANGHAI KECHOW PHARMA, INC., priority 2021, published 2024).

tested on: AGS cells (KRAS^G12D); assay: Detection of cell proliferation in vitro by MTT/MTS method (cell activity experiment); format: cell-based; details: AGS cells; MTT/MTS; 3 days of drug treatment; read-out: AGS IC50
How it was run: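 After 3-day compound exposure (final DMSO 0.5%), viability of AGS (KRAS G12D) cells, plated 1000/well one day before dosing, was measured at 490 nm following 4 h MTT or MTS incubation. IC50 was fitted from dose–effect curves relative to DMSO-treated wells.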

| SMILES | IC50 |
| --- | --- |
| C#Cc1c(F)ccc2cc(O)cc(-c3ccc4c(N5C[C@H]6CC[C@@H](C5)N6)nc(OC[C@]56CCCN5[C@@H](COC(=O)N(C)C)CC6)nc4c3)c12 [Example 153, ((3R,7aR)-7a-(((4-((1R, 5S)-3,8-diazabicyclo [3.2.1]octan-3-yl)-7-(8-ethynyl-7-fluoro-3-hydroxynaphthalen-1-yl)quinazolin-2-yl)oxy)methyl)hexahydro-1H-pyrrolizin-3-yl) methyl dimethylcarbamate] | 190 nM |

same assay, conditions: Homo sapiens, AGS, 72 h, AGS cells; MTT/MTS; 3 days of drug treatment; read-out: AGS IC50

| SMILES | IC50 |
| --- | --- |
| C#Cc1c(F)ccc2cc(O)cc(-c3ccc4c(N5C[C@H]6CC[C@@H](C5)N6)nc(OC[C@@]56CCCN5C[C@H](F)C6)nc4n3)c12 [Example 140, 4-(4-((1R,5S)-3,8-diazabicyclo[3.2.1]octan-3-yl)-2-(((2R, 7aS)-2-fluorotetrahydro-1H-pyrrolizin-7a(5H)-yl)methoxy)pyrido[2,3-d]pyrimidin-7-yl)-5-ethynyl-6-fluoronaphthalen-2-ol] | > 2500 nM |
| CCc1c(F)ccc2cc(O)cc(-c3ccc4c(N5C[C@H]6CC[C@@H](C5)N6)nc(OC[C@@]56CCCN5C[C@H](F)C6)nc4n3)c12 [Example 141, 4-(4-((1R,5S)-3,8-diazabicyclo[3.2.1]octan-3-yl)-2-(((2R,7aS)-2-fluorotetrahydro-1H-pyrrolizin-7a(5H)-yl)methoxy)pyrido[2,3-d]pyrimidin-7-yl)-5-ethyl-6-fluoronaphthalen-2-ol] | > 2500 nM |
| Oc1cc(-c2ccc3c(N4C[C@H]5CC[C@@H](C4)N5)nc(OC[C@@]45CCCN4C[C@H](F)C5)nc3n2)c2c(F)c(F)ccc2c1 [Example 142, 4-(4-((1R,5S)-3,8-diazabicyclo[3.2.1]octan-3-yl)-2-(((2R,7aS)-2-fluorotetrahydro-1H-pyrrolizin-7a(5H)-yl)methoxy)pyrido[2,3-d]pyrimidin-7-yl)-5,6-difluoronaphthalen-2-ol] | > 2500 nM |
| Oc1cc(-c2ccc3c(N4C[C@H]5CC[C@@H](C4)N5)nc(OC[C@@]45CCCN4C[C@H](F)C5)nc3n2)c2c(F)cccc2c1 [Example 143, 4-(4-((1R,5S)-3,8-diazabicyclo[3.2.1]octan-3-yl)-2-(((2R,7aS)-2-fluorotetrahydro-1H-pyrrolizin-7a(5H)-yl)methoxy)pyrido[2,3-d]pyrimidin-7-yl)-5-fluoronaphthalen-2-ol] | > 2500 nM |
| C#Cc1cccc2cc(O)cc(-c3ccc4c(N5C[C@H]6CC[C@@H](C5)N6)nc(OC[C@@]56CCCN5C[C@H](F)C6)nc4n3)c12 [Example 144, 4-(4-((1R,5S)-3,8-diazabicyclo[3.2.1]octan-3-yl)-2-(((2R,7aS)-2-fluorotetrahydro-1H-pyrrolizin-7a(5H)-yl)methoxy)pyrido[2,3-d]pyrimidin-7-yl)-5-ethynylnaphthalen-2-ol] | > 2500 nM |
| C#Cc1c(F)ccc2cc(O)cc(-c3ccc4c(N5C[C@H]6CC[C@@H](C5)N6)nc(OC[C@]56CCCN5[C@@H](COC(=O)N(C)C)CC6)nc4n3)c12 [Example 145, ((3R,7aR)-7a-(((4-((1R, 5S)-3,8-diazabicyclo [3.2.1]octan-3-yl)-7-(8-ethynyl-7-fluoro-3-hydroxynaphthalen-1-yl)pyrido[2,3-d]pyrimidin-2-yl)oxy)methyl)hexahydro-1H-pyrrolizin-3-yl)methyl dimethylcarbamate] | > 2500 nM |
| CCc1c(F)ccc2cc(O)cc(-c3ccc4c(N5C[C@H]6CC[C@@H](C5)N6)nc(OC[C@]56CCCN5[C@@H](COC(=O)N(C)C)CC6)nc4n3)c12 [Example 146, ((3R,7aR)-7a-(((4-((1R, 5S)-3,8-diazabicyclo [3.2.1]octan-3-yl)-7-(8-ethyl-7-fluoro-3-hydroxynaphthalen-1-yl)pyrido[2,3-d]pyrimidin-2-yl)oxy)methyl)hexahydro-1H-pyrrolizin-3-yl)methyl dimethylcarbamate] | > 2500 nM |
| C#Cc1c(F)ccc2cccc(-c3ccc4c(N5C[C@H]6CC[C@@H](C5)N6)nc(OC[C@]56CCCN5[C@@H](COC(=O)N(C)C)CC6)nc4n3)c12 [Example 147, ((3R,7aR)-7a-(((4-((1R, 5S)-3,8-diazabicyclo [3.2.1]octan-3-yl)-7-(8-ethynyl-7-fluoronaphthalen-1-yl)pyrido[2,3-d]pyrimidin-2-yl)oxy)methyl)hexahydro-1H-pyrrolizin-3-yl)methyl dimethylcarbamate] | > 2500 nM |
| C#Cc1c(F)ccc2cc(O)cc(-c3ccc4c(N5C[C@H]6CC[C@@H](C5)N6)nc(OC[C@@]56CCCN5C[C@H](F)C6)nc4c3)c12 [Example 148, 4-(4-((1R,5S)-3,8-diazabicyclo[3.2.1]octan-3-yl)-2-(((2R, 7aS)-2-fluorotetrahydro-1H-pyrrolizin-7a(5H)-yl)methoxy)quinazolin-7-yl)-5-ethynyl-6-fluoronaphthalen-2-ol] | 318 nM |
| CCc1c(F)ccc2cc(O)cc(-c3ccc4c(N5C[C@H]6CC[C@@H](C5)N6)nc(OC[C@@]56CCCN5C[C@H](F)C6)nc4c3)c12 [Example 149, 4-(4-((1R,5S)-3,8-diazabicyclo[3.2.1]octan-3-yl)-2-(((2R, 7aS)-2-fluorotetrahydro-1H-pyrrolizin-7a(5H)-yl)methoxy)quinazolin-7-yl)-5-ethyl-6-fluoronaphthalen-2-ol] | 320 nM |
| Oc1cc(-c2ccc3c(N4C[C@H]5CC[C@@H](C4)N5)nc(OC[C@@]45CCCN4C[C@H](F)C5)nc3c2)c2c(F)c(F)ccc2c1 [Example 150, 4-(4-((1R,5S)-3,8-diazabicyclo[3.2.1]octan-3-yl)-2-(((2R, 7aS)-2-fluorotetrahydro-1H-pyrrolizin-7a(5H)-yl)methoxy)quinazolin-7-yl)-5,6-difluoronaphthalen-2-ol] | 330 nM |
| C#Cc1cccc2cc(O)cc(-c3ccc4c(N5C[C@H]6CC[C@@H](C5)N6)nc(OC[C@@]56CCCN5C[C@H](F)C6)nc4c3)c12 [Example 152, 4-(4-((1R,5S)-3,8-diazabicyclo[3.2.1]octan-3-yl)-2-(((2R, 7aS)-2-fluorotetrahydro-1H-pyrrolizin-7a(5H)-yl)methoxy)quinazolin-7-yl)-5-ethynylnaphthalen-2-ol] | 318 nM |
| CCc1c(F)ccc2cc(O)cc(-c3ccc4c(N5C[C@H]6CC[C@@H](C5)N6)nc(OC[C@]56CCCN5[C@@H](COC(=O)N(C)C)CC6)nc4c3)c12 [Example 154, ((3R,7aR)-7a-(((4-((1R, 5S)-3,8-diazabicyclo [3.2.1]octan-3-yl)-7-(8-ethyl-7-fluoro-3-hydroxynaphthalen-1-yl)quinazolin-2-yl)oxy)methyl)hexahydro-1H-pyrrolizin-3-yl) methyl dimethylcarbamate] | 195 nM |
| C#Cc1c(F)ccc2cccc(-c3ccc4c(N5C[C@H]6CC[C@@H](C5)N6)nc(OC[C@]56CCCN5[C@@H](COC(=O)N(C)C)CC6)nc4c3)c12 [Example 155, ((3R,7aR)-7a-(((4-((1R, 5S)-3,8-diazabicyclo [3.2.1]octan-3-yl)-7-(8-ethynyl-7-fluoronaphthalen-1-yl)quinazolin-2-yl)oxy)methyl)hexahydro-1H-pyrrolizin-3-yl)methyl dimethylcarbamate] | 215 nM |
| Oc1cc2c(c(-c3ccc4c(N5C[C@H]6CC[C@@H](C5)N6)nc(OC[C@@]56CCCN5C[C@H](F)C6)nc4c3F)c1)C1CC1C2 (stereo partly drawn) [Example 156, 2-(4-((1R,5S)-3,8-diazabicyclo[3.2.1]octan-3-yl)-8-fluoro-2-(((2R,7aS)-2-fluorotetrahydro-1H-pyrrolizin-7a(5H)-yl)methoxy)quinazolin-7-yl)-1,1a,6,6a-tetrahydrocyclopropa [a]inden-4-ol] | 40 nM |
| C#Cc1cccc2cc(O)cc(-c3ccc4c(N5C[C@H]6CC[C@@H](C5)O6)nc(OC[C@@]56CCCN5C[C@H](F)C6)nc4c3F)c12 [Example 157, 4-(4-((1R,5S)-8-oxa-3-azabicyclo[3.2.1]octan-3-yl)-8-fluoro-2-(((2R,7aS)-2-fluorotetrahydro-1H-pyrrolizin-7a(5H)-yl)methoxy)quinazolin-7-yl)-5-ethynylnaphthalen-2-ol] | 330 nM |
| C#Cc1c(F)ccc2cc(O)cc(-c3ccc4c(N5C[C@H]6CC[C@@H](C5)S6)nc(OC[C@@]56CCCN5C[C@H](F)C6)nc4c3F)c12 [Example 158, 4-(4-((1R,5S)-8-thia-3-azabicyclo[3.2.1]octan-3-yl)-8-fluoro-2-(((2R,7aS)-2-fluorotetrahydro-1H-pyrrolizin-7a(5H)-yl)methoxy)quinazolin-7-yl)-5-ethynyl-6-fluoronaphthalen-2-ol] | 235 nM |
| C#Cc1c(F)ccc2cc(O)cc(-c3ccc4c(N5CC6CCC(C5)[S+]6[O-])nc(OC[C@@]56CCCN5C[C@H](F)C6)nc4c3F)c12 (stereo partly drawn) [Example 159, (1R,5S,8R)-3-(7-(8-ethynyl-7-fluoro-3-hydroxynaphthalen-1-yl)-8-fluoro-2-(((2R,7aS)-2-fluorotetrahydro-1H-pyrrolizin-7a(5H)-yl)methoxy)quinazolin-4-yl)-8-thia-3-azabicyclo[3.2.1]octane 8-oxide] | > 2500 nM |
| C#Cc1c(F)ccc2cc(O)cc(-c3ccc4c(N5C[C@H]6CC[C@@H](C5)S6(=O)=O)nc(OC[C@@]56CCCN5C[C@H](F)C6)nc4c3F)c12 [Example 160, (1R,5S)-3-(7-(8-ethynyl-7-fluoro-3-hydroxynaphthalen-1-yl)-8-fluoro-2-(((2R,7aS)-2-fluorotetrahydro-1H-pyrrolizin-7a(5H)-yl)methoxy)quinazolin-4-yl)-8-thia-3-azabicyclo[3.2.1]octane 8,8-dioxide] | > 2500 nM |
| CCc1c(F)ccc2cc(O)cc(-c3ccc4c(N5C[C@H]6CC[C@@H](C5)S6)nc(OC[C@@]56CCCN5C[C@H](F)C6)nc4c3F)c12 [Example 161, 4-(4-((1R,5S)-8-thia-3-azabicyclo[3.2.1]octan-3-yl)-8-fluoro-2-(((2R,7aS)-2-fluorotetrahydro-1H-pyrrolizin-7a(5H)-yl)methoxy)quinazolin-7-yl)-5-ethyl-6-fluoronaphthalen-2-ol] | 236 nM |
